Tests used:
profilin-1 (PFN1) WT = target: T1, profilin-1 (PFN1) WT (Homo sapiens, UniProt P07737); assay: […]-1H HSQC NMR titration (global fit); DSF; assay type: binding
T1 construct: recombinant, SUMO tag cleaved, 15N labeled

profilin-1 (PFN1) M114T = target: T2, profilin-1 (PFN1) M114T (Homo sapiens, UniProt P07737, M114T); assay: […]-1H HSQC NMR titration (global fit); DSF; assay type: binding
T2 construct: recombinant, SUMO tag cleaved, 15N labeled
T2 sequence (P07737 2-140 M114T): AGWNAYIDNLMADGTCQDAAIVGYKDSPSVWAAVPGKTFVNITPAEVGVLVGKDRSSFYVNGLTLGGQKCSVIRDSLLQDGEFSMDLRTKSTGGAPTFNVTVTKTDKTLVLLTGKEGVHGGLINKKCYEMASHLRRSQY

T1 sequence (P07737 2-140): as the sequence (P07737 2-140 M114T) above, with T113M counted along it

## CCCCCCCC(=O)OC[C@H](COP(=O)(O)O[C@@H]1[C@H](O)[C@H](OP(=O)(O)O)[C@@H](O)[C@H](O)[C@H]1O)OC(=O)CCCCCCC [PI3P]
profilin-1 (PFN1) WT
  Kd: 1880 ± 190 µM
profilin-1 (PFN1) M114T
  Kd: 370 ± 30 µM

— article PMC10954694, “Expression of ALS-PFN1 impairs vesicular degradation in iPSC-derived microglia” (Nature Communications, 2024)
